In test [1] the test system is IL-1β cytokine output from THP-1s. As to the kind of experiment: THP-1 AlphaLISA IL-1β cytokine inhibition assay. The class given is cell-based. As to conditions: LPS then nigericin. The protocol:
Measuring Inhibitory Effects on IL-1β Cytokine Output from THP-1s
The cytokine inhibition profiles of compounds of formula (I) were determined in a differentiated THP-1 cell assay. All assays were performed in RPMI-1640 growth medium (Gibco), supplemented with 10% fetal bovine serum (FBS; Gibco), 1% penicillin-streptomycin and 1% sodium pyruvate unless specified otherwise. The IL-1β cytokine inhibition assay was run in a background of differentiated THP-1 cells as described below. All reagents described were from Sigma-Aldrich unless specified otherwise. Compounds were prepared as 10 mM DMSO stocks.
THP-1 cells were expanded as a suspension up to 80% confluence in appropriate growth medium. Cells were harvested, suspended, and treated with an appropriate concentration of phorbol 12-myristate 13-acetate (PMA) over a 72 hr period (37° C./5% CO2).
Following 72 hrs of THP-1 cell incubation, cellular medium was removed and replaced with fresh growth media containing 1% of FBS. Working concentrations of compounds were prepared separately in 10% FBS treated growth medium and pre-incubated with the cells for 30 minutes (37° C./5% CO2). Following the 30 minute compound pre-incubation, THP-1s were treated with an appropriate concentration of LPS and the cells were subsequently incubated for a 24 hr period (37° C./5% CO2). An appropriate final concentration of Nigericin was then dispensed into the THP-1 plates and incubated for 1 hour (37° C./5% CO2) before THP-1 supernatants were harvested and collected in separate polypropylene 96-well holding plates.
Reagents from an IL-1β and IL-6 commercial kit (Perkin Elmer) were prepared and run according to the manufacturer's instructions. Subsequently, fluorescence signal detection in a microplate reader was measured (EnVision® Multilabel Reader, Perkin Elmer).
Percentage inhibition was calculated per cytokine by normalising the sample data to the high and low controls used within each plate (+/− LPS respectively).
On the technique in general: Alpha assays give light when donor and acceptor beads are brought close together.

The test system of test [2] is NRF2 (nuclear factor erythroid 2-related factor 2). As to the kind of experiment: NRF2 +/-GSH activation assay (DiscoverX PathHunter NRF2 translocation kit, U2OS cells). The class given is cell-based. As to conditions: for NRF2 activation +GSH Emax / NRF2 activation −GSH Emax: normalised to DMF high control. The protocol: Measuring Compound Activation Effects on the Anti-Inflammatory Transcription Factor NRF2 in DiscoverX PathHunter NRF2 Translocation Kit
Potency and efficacy of compounds of formula (I) against the target of interest to activate NRF2 (nuclear factor erythroid 2-related factor 2) were determined using the PathHunter NRF2 translocation kit (DiscoverX). The NRF2 translocation assay was run using an engineered recombinant cell line, utilising enzyme fragment complementation to determine activation of the Keap1-NRF2 protein complex and subsequent translocation of NRF2 into the nucleus. Enzyme activity was quantified using a chemiluminescent substrate consumed following the formation of a functional enzyme upon PK-tagged NRF2 translocation into the nucleus.
The assay was run under both +/−GSH (glutathione) conditions to determine the sensitivity of the compounds' NRF2-activating abilities to attenuation by GSH.
Additionally, a defined concentration of DMF was used as the ‘High’ control to normalise test compound activation responses to.
U2OS PathHunter eXpress cells were thawed from frozen prior to plating. Following plating, U2OS cells were incubated for 24 hrs (37° C./5% CO2) in commercial kit provided cell medium.
Following 24 hrs of U2OS incubation, cells were directly treated with an appropriate final concentration of compound, for −GSH conditions or, for +GSH conditions, an intermediate plate containing 6× working concentrations of compound stocks was prepared in a 6 mM working concentration of GSH solution (solubilised in sterile PBS). Following a 30 minute compound-GSH pre-incubation (37° C./5% CO2) for +GSH treatment, plated U2OS cells were incubated with an appropriate final concentration of compound and GSH.
Following compound (+/−GSH) treatment, the U2OS plates were incubated for a further 6 hours (37° C./5% CO2) before detection reagent from the PathHunter NRF2 commercial kit was prepared and added to test plates according to the manufacturer's instructions. Subsequently, the luminescence signal detection was measured in a microplate reader (PHERAstar®, BMG Labtech).
Percentage activation was calculated by normalising the sample data to the high and low controls used within each plate (+/−DMF).

[3] abbreviates: +GSH, 30 minute compound-GSH pre-incubation, read-out: NRF2 activation +GSH EC50.
Where [4] appears, read: −GSH, U2OS PathHunter cells, 6 hours compound treatment, read-out: NRF2 activation −GSH EC50.
The mark [5] stands for this setting: Homo sapiens, THP-1, differentiated THP-1 cells.

Counter-ions that a name gives are not always drawn. Like-named read-outs stand apart in the source and are kept apart here.

With `C=C(Cc1nc(-c2ccc(OC(C)CC)cc2)no1)C(=O)O` (stereo in doubt) [Example 145, (S)-2-((3-(4-(sec-butoxy)phenyl)-1,2,4-oxadiazol-5-yl)methyl)acrylic acid], the IC50 (commonly the concentration that gives 50% inhibition) in test [1] (differentiated THP-1 cells) was found to be 35.6 µM. Moreover, the values for the EC50 in test [2] (setting [3]) and in test [2] (setting [4]) were 31.4 µM and 28.4 µM, respectively. Besides, the “NRF2 activation +GSH Emax” value in test [2] (+GSH) came out at 135%. In test [2] (−GSH), the “NRF2 activation −GSH Emax” value amounted to 170%.
The compound `C=C(Cc1noc(C2(c3ccc(OC(F)(F)F)cc3)CC2)n1)C(=O)O` [Example 99, 2-((5-(1-(4-(trifluoromethoxy)phenyl)cyclopropyl)-1,2,4-oxadiazol-3-yl)methyl)acrylic acid] gave an IC50 in test [1] (setting [5]) of 52.3 µM.
Same read-out and setting: then `C=C(Cc1nc(C2(c3ccc(OC4CC4)cc3)CC2)no1)C(=O)O` [Example 114], with 55.2 µM; and `C=C(Cc1nc(-c2ccc(Br)cc2)no1)C(=O)O` [Example 118, 2-((3-(4-bromophenyl)-1,2,4-oxadiazol-5-yl)methyl)acrylic acid], with 59.6 µM.
Compound `C=C(Cc1nc(-c2ccc(I)cc2)no1)C(=O)O` [Example 119, 2-((3-(4-iodophenyl)-1,2,4-oxadiazol-5-yl)methyl)acrylic acid] came in with an IC50 in test [1] (setting [5]) of 59.6 µM.
Same read-out and setting: the value for `C=C(Cc1nc(-c2ccc(S(F)(F)(F)(F)F)cc2)no1)C(=O)O` [Example 121, 2-((3-(4-(pentafluoro-λ^6-sulfaneyl)phenyl)-1,2,4-oxadiazol-5-yl)methyl)acrylic acid] was 61.8 µM.
Same read-out and setting: the value for `C=C(Cc1nc(C2(c3ccc(S(=O)(=O)C(F)(F)F)cc3)CC2)no1)C(=O)O` [Example 122, 2-((3-(1-(4-((trifluoromethyl)sulfonyl)phenyl)cyclopropyl)-1,2,4-oxadiazol-5-yl)methyl)acrylic acid] was 75.5 µM; that for `C=C(Cc1nc(Oc2ccc(CCCC)cc2)no1)C(=O)O` [Example 126, 2-((3-(4-butylphenoxy)-1,2,4-oxadiazol-5-yl)methyl)acrylic acid] was 32.1 µM; that for `C=C(Cc1nc(-c2ccc(N3CCCC3)cc2)no1)C(=O)O` [Example 132, 2-((3-(4-(pyrrolidin-1-yl)phenyl)-1,2,4-oxadiazol-5-yl)methyl)acrylic acid] was 29.9 µM.
`C=C(Cc1nc(Cc2ccc(C(F)(F)F)c(Cl)c2)no1)C(=O)O` [Example 137, 2-((3-(3-chloro-4-(trifluoromethyl)benzyl)-1,2,4-oxadiazol-5-yl)methyl)acrylic acid]: in test [1] (setting [5]), the half-maximal inhibitory concentration (IC50) amounted to 60.5 µM.
`C=C(Cc1nc(Cc2ccc(Br)c(Cl)c2)no1)C(=O)O` [Example 139, 2-((3-(4-bromo-3-chlorobenzyl)-1,2,4-oxadiazol-5-yl)methyl)acrylic acid] returned a half-maximal inhibitory concentration (IC50) in test [1] (setting [5]) of 41.1 µM.
As to `C=C(Cc1nc(C2CCc3c(Cl)cc(Cl)cc32)no1)C(=O)O` (centres unmarked) [Example 148, 2-((3-(4,6-dichloro-2,3-dihydro-1H-inden-1-yl)-1,2,4-oxadiazol-5-yl)methyl)acrylic acid], the half-inhibitory concentration (IC50) in test [1] (setting [5]) amounted to 42.6 µM.
Same read-out and setting: the value for `C=C(Cc1nc(-c2ccc(OCCC)cc2)no1)C(=O)O` [Example 149, 2-((3-(4-propoxyphenyl)-1,2,4-oxadiazol-5-yl)methyl)acrylic acid] was 50 µM; that for `C=C(Cc1nc(C(F)(F)c2ccc(OC)c(Cl)c2)no1)C(=O)O` [Example 150, 2-((3-((3-chloro-4-methoxyphenyl)difluoromethyl)-1,2,4-oxadiazol-5-yl)methyl)acrylic acid] was 52.7 µM.
`C=C(Cc1nc(C(F)c2ccc(Cl)cc2)no1)C(=O)O` (centres unmarked) [Example 152, 2-((3-((4-chlorophenyl)fluoromethyl)-1,2,4-oxadiazol-5-yl)methyl)acrylic acid]: in test [1] (setting [5]), 36.4 µM corresponded to half-maximal inhibition (IC50).
Consider `COC(=O)/C=C/C(=O)OC` [dimethyl fumarate, reference compound], for which the EC50 (as a rule, the concentration that produces a half-maximal response) is above 100 µM in test [2] (setting [3]) and 6.1 µM in test [2] (setting [4]). Further, the “NRF2 activation +GSH Emax” value in test [2] (+GSH) is recorded as 20%. Moreover, in test [2] (−GSH), the “NRF2 activation −GSH Emax” value came to 100%.

Source of the values: US12617762B2, “Carboxy derivatives with antiinflamatory properties” (Sitryx Therapeutics Limited, priority 2019, dated 2026).
